Test results taken from patent US20050154046A1, “Methods of treating an inflammatory-related disease” (priority 2004, published 2005).
“Also recorded” adds a separate entry of the source.

Tests used:
[1] = system: mouse vaginal epithelium; assay: Mitotic index in estrogen-stimulated vaginal epithelium of female mice; type: in vivo, Kunming mice; settings: 1.0 mg/kg i.p. once a day, 3 days; percent of mitotic cells
Excerpt: (§1) Materials: Meisoindigo was synthesized, purified and its structure characterized by Natrogen Therapeutics, Inc. The purity of the compound was 98.5% as described in the Examples above. A suspension of Meisoindigo was freshly prepared in 0.5% sodium methylcellulose and given orally for the animal tests described below. Other chemicals used in the following experiments were purchased from Sigma.
(§2) Pathogen-free female Kunming mice at 12 weeks of age with body weights from 22 to 25 grams were housed 5 per cage, and given, ad libitum, fresh tap water and commercial rodent pellets. Animal rooms were controlled at 24±2° C. with a relative humidity of 60±5% and a 12 hour light/dark cycle (07:00-19:00 hr).
Anti-mitotic Effects of Meisoindigo on Mouse Vaginal Epithelium: Sixty Kunming female mice were randomly divided into 5 groups, 20 in one control group, and 10 in 4 drug-tested groups. All mice were given estrogen at a dose of 0.2 mg/animal for 3 days to allow vaginal epithelial cells to develop under the stimulation of estrogen hormone. Meisoindigo was freshly prepared as a suspension in 0.5% of sodium methylcellulose. The drug was given orally at doses of 50, 100, and 200 mg/kg, respectively, once a day for 3 days. Methotrexate (MTX) was used as a positive control at a dose of 1 mg/kg, i.p. once a day for the same period of time. […] The mitotic index (percent of mitotic cells) was calculated.

[2] = system: scale epithelial cells of mouse-tails; assay: Mouse-tail model: granular layer formation in scale epithelial cells; type: in vivo, Kunming mice; settings: 1.0 mg/kg i.p. once every 2 days, 13 days
Excerpt: as §1, §2
Effect of Meisoindigo on Epidermal Cell Differentiation in Mouse Tails: Sixty female Kunming mice were randomly divided into 5 groups, 20 in one control group, and 10 in 4 drug-tested groups. Meisoindigo was freshly prepared as a suspension in 0.5% of sodium methylcellulose. The drug was given orally at doses of 50, 100, and 200 mg/kg, respectively, once a day for 13 days. Methotrexate (MTX) was used as a positive control at a dose of 1 mg/kg, i.p. once every 2 days, for the same period of time. The same volume and vehicle for Meisoindigo suspension were used as a negative control. […] Slides were prepared for histological examination as originally described by Bosman et. al., (106). The slides were prepared by cutting the tails into longitudinal sections, and Hematoxylin and Eosin (H&E) stained. The slides were then examined with a light microscope to evaluate the degree of orthokeratosis (OK) and epidermal hyperplasia. The former was done by measuring the horizontal length of the fully developed granular layer stratum granulosum within an individual scale in relation to its total length. Drug activity was defined by the increase of the positive scale cells containing granular layer stratum granulosum between two folliculus pili.

[3] = system: IL-6; assay: IL-6 secretion (ELISA) in LPS-stimulated THP-1 cells; type: cell-based, human; settings: as low as 31.25 nM (31.25 and 62.5 nM in FIG. 6), 24 h
Method: (§5) Viability of cells was examined under microscope after trypan blue staining.
Standard IL-6 protein was used to establish a standard curve for the calculation of IL-6 in the medium secreted by the cells (LPS-stimulated or non-stimulated cells in the presence or absence of Meisoindigo).
(§6) 1) Effects of Meisoindigo and NATURA on the expression/secretion of cytokines IL-1β, IL-6, IL-10: The human monocytic THP-1 cells grown exponentially were stimulated with or without 1 μM of lipopolysaccharide (LPS, Sigma), and exposed for 24 hours to different concentrations of Meisoindigo and NATURA (from 31.25 nM and 62.5 nM), respectively. Viability of cells was examined by trypan blue exception assay.

[4] = target: T1, CDK2 (Homo sapiens, UniProt P24941); assay: Cyclin dependent kinase activity in THP-1 cells (immunoprecipitation, histone H1 phosphorylation); type: cell-based; settings: 24 h
T1 construct: endogenous in cells; host or cells: THP-1
Method: (§3) 2) Effects of Meisoindigo and/or NATURA on activity of cyclin dependent kinases (CDK) in THP-1 cells (99): THP-1 cells grown exponentially were exposed to […] of Meisoindigo or NATURA for 24 hr, respectively.
(§4) The cells were harvested, washed, and total proteins extracted as described previously (100). One hundred μg of the proteins were immuno-precipitated using antibodies against either cdk2, cdk4/6 or cyclin D1 overnight at 4° C. in the presence of a cocktail of protease inhibitors. The immuno-precipitates were washed 4 times with protein extraction buffer and once with kinase assay buffer, and reacted with […] histone H1 in the presence of [γ-^32P]-ATP (10 μCi/10 μM). The phosphorylated histone H1 (represent cdk activity) was measured by scintillation counting or by SDS-polyacrylaimde gel electrophoresis (101, 102).

[5] = system: cyclin D1; assay: Cyclin D1 levels in THP-1 cells; type: cell-based, human; settings: 31.25 and 62.5 nM, 24 h; data not shown
[6] = system: IL-1β; assay: IL-1β secretion (ELISA) in LPS-stimulated THP-1 cells; type: cell-based, human; settings: as low as 31.25 nM (31.25 and 62.5 nM in FIG. 6), 24 h
Method: It was prepared in a solution of dimethyl sulfoxide (DMSO), and stored under −20° C. for the experiments in vitro. Human monocytic cell line, THP-1 (90), was purchased from ATCC. The cells were maintained according to the supplier's instructions. Approximately 1×10^5 cells/ml were cultured at 37° C., 5% CO2 for 24 hours in Modified RPMI-1640 Medium (Invitrogen) supplemented with 10% FBS.
Viability of cells was examined under microscope after trypan blue staining. Protein levels of IL-1β secreted into the culture media by the cells were then measured by ELISA and calculated from its standard curve using an assay Kit from R&D Systems according to instructions provided by the supplier.
Statistical Analysis: All data were expressed as a mean±SD. Statistical significance of any difference between the control (LPS) and experimental groups was determined by the Student's t-test. P values between the 2 groups must be at least smaller than 0.05 to be considered statistically significant.
as §6

[7] = system: IL-10; assay: IL-10 secretion (ELISA) in THP-1 cells; type: cell-based, human
Excerpt: as §5
Viability of cells was examined by trypan blue exception assay.

[8] = target: T2, glycogen synthase kinase-3β (GSK-3β) (Homo sapiens, UniProt P49841); assay: Effect on glycogen synthase kinase-3β in cells; type: cell-based; settings: as high as 50 μM; data not shown
T2 construct: endogenous in cells
T2 sequence (P49841 whole entry): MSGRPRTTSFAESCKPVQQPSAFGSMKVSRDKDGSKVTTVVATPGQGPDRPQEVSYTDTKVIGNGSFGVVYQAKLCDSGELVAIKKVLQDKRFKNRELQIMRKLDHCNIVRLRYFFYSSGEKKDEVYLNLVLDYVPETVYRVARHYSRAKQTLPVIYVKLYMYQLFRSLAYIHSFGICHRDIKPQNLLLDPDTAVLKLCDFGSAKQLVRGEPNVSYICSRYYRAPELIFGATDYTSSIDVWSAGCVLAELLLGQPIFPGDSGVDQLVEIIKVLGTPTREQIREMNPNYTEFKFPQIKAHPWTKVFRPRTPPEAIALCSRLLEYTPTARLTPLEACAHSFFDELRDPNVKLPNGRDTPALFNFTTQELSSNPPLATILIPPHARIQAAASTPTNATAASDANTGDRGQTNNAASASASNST

[9] = system: cdk4/6; assay: Cyclin dependent kinase activity in THP-1 cells (immunoprecipitation, histone H1 phosphorylation); type: cell-based, human; settings: 31.25 and 62.5 nM, 24 h
Method: as §3, §4

Compound	Mitotic Index (X ± SD) [1]	Granulous Scales (X ± SD) [2]	effect on IL-6 production/secretion [3]	partial inhibition of CDK activity ([4]; 1.5 μM, FIG. 6B) [%]	inhibition of CDK2 activity ([4]; 31.25 and 62.50 nM)	effect on levels of cyclin D1 [5]	effect on IL-1β production [6]	effect on IL-10 production ([7]; 31.25 and 62.5 nM, 24 h)	elevation of LPS-suppressed IL-10 ([7]; similar concentrations (as low as 31.25 nM), FIG. 6A) [fold]	activity on GSK-3β [8]	inhibition of cyclin dependent kinase 4 and 6 activity [9]
CN(Cc1cnc2nc(N)nc(N)c2n1)c1ccc(C(=O)N[C@@H](CCC(=O)O)C(=O)O)cc1 [MTX, Methotrexate, reference compound]	14.76±4.29	17.22 ± 4.92									
CC(=O)OC1COC(N2C(=O)/C(=C3/C(=O)Nc4ccccc43)c3ccccc32)C(OC(C)=O)C1OC(C)=O (centres unmarked) [NATURA]			significantly inhibit	23	failed to inhibit; also recorded: no inhibitory effect	failed to inhibit	significantly inhibit	promoted production	~2	no activity was observed	failed to inhibit
